Measured values as given in patent publication US20060100260A1, “Substituted pyrazoline carboxanilides for use as pesticides” (priority 2002, published 2006).

Tests used:
[1] = system: larvae of the mustard beetle (Phaedon cochleariae); assay: Phaedon larvae test; assay type: in vivo; settings: active compound concentration 100 ppm; after 7 days; dipped cabbage leaves
Experimental: (§1) [table] To produce a suitable preparation of active compound, 1 part by weight of active compound is mixed with the stated amounts of solvent and emulsifier, and the concentrate is diluted with emulsifier-containing water to the desired concentration. Cabbage leaves (Brassica oleracea) are treated by being dipped into the preparation of active compound of the desired concentration and are populated with larvae of the mustard beetle (Phaedon cochleariae) while the leaves are still moist. After the desired period of time, the kill in % is determined. 100% means that all beetle larvae have been killed; 0% means that none of the beetle larvae have been killed.

[2] = logP determination by HPLC (EEC Directive 79/831 Annex V.A8); assay type: physicochemical; settings: reversed-phase HPLC column (C 18), pH 2.3, reversed-phase column (C 18), 43° C.
Experimental: The logP values given in the Preparation Examples are determined in accordance with EEC Directive 79/831 Annex V.A8 by HPLC (High Performance Liquid Chromatography) using a reversed-phase column (C 18). Temperature: 43° C.
The determination is carried out in the acidic range at pH 2.3 using the mobile phases 0.1% aqueous phosphoric acid and acetonitrile; linear gradient from 10% acetonitrile to 90% acetonitrile.
Calibration is carried out using unbranched alkan-2-ones (having 3 to 16 carbon atoms) with known logP values (determination of the logP values by the retention times using linear interpolation between two successive alkanones).

[3] = system: caterpillars of the armyworm (Spodoptera frugiperda); assay: Spodoptera frugiperda test; assay type: in vivo; settings: active compound concentration 100 ppm; after 7 days; dipped cabbage leaves
Experimental: as §1, with “caterpillars” for “larvae”, “armyworm (Spodoptera frugiperda)” for “mustard beetle (Phaedon cochleariae)”, “caterpillars” for “beetle larvae”

[4] = system: Heliothis armigera; assay: Heliothis armigera test; assay type: in vivo; settings: active compound concentration 100 ppm; after 7 days; dipped soya bean shoots
[5] = system: caterpillars of the diamondback moth (Plutella xylostella); assay: Plutella test; assay type: in vivo; settings: active compound concentration 100 ppm; after 7 days; dipped cabbage leaves
Experimental: as §1, with “caterpillars” for “larvae”, “diamondback moth (Plutella xylostella)” for “mustard beetle (Phaedon cochleariae)”, “caterpillars” for “beetle larvae”

Row | chromatographic logP [2] | SMILES | kill [1] [%] | kill [3] [%] | kill [4] [%] | kill [5] [%]
1 | 3.94 | N#CCN(C(=O)N1CC(n2cc(Cl)cn2)C(c2ccc(Cl)cc2)=N1)c1ccc(Cl)cc1 (stereo not drawn) [Example 1, 3-(4-chlorophenyl)-4-(4-chloropyrazol-1-yl)-4,5-dihydro-1-pyrazolecarboxylic acid (N-cyanomethyl)-4-chloroanilide] | 100 | 100 | 100 | 100
2 | 2.64 | Clc1ccc(C2=NNCC2n2cc(Cl)cn2)cc1 (stereo not drawn) [Example (II-1), 3-(4-chlorophenyl)-4-(4-chloropyrazol-1-yl)-4,5-dihydro-1H-pyrazole] |  |  |  | 
